What was measured:
blood brain barrier [1] = experiment: Fluorimetric analysis of labeled dextrans in brain after i.v. drug administration, rats; assay type: in vivo; settings: i.v. administration, 10,000 Da dextrans
Description: C57BL/6 mice from Jackson Laboratories were used as wild types. All mice used were aged 7-9 weeks and weighed between 20-25 g. All rats were aged 8 weeks and weighed 200-220 g. Mice and rats were bred and housed under specific pathogen-free conditions. The adenosine receptor agonists NECA, CCPA and CGS 21860 were purchased from Tocris. Each was dissolved in DMSO then diluted in PBS to the desired concentration; in most cases final DMSO concentrations were <0.5% (vol/vol). For vehicle controls, DMSO was diluted in PBS to the same concentration. Dehydrated dextrans labeled with either FITC or Texas Red were purchased from Invitrogen and re-suspended in PBS to 10 mg ml^-1. All experiments involving dextran injection used 0.5 mg dextran in PBS. In experiments where drug and dextran were injected concomitantly, 0.5 mg of dextran was mixed with the drug to the desired concentration in a final volume of 200 μl. All injections were retro-orbital i.v. with a 27-gauge needle. In the SCH 58261 experiment, groups were administered vehicle or SCH 58261 for 4 d. Vehicle/drug and dextrans were injected on day 5 and tissues were collected 3 h after vehicle/drug administration. […] FITC-dextran was detected at 488/519 (excitation/emission) and Texas Red-dextran was detected at 592/618.

blood brain barrier [2] = experiment: Fluorimetric analysis of labeled dextrans in brain after i.v. drug administration; assay type: in vivo, mice
Description: C57BL/6 mice from Jackson Laboratories were used as wild types. All mice used were aged 7-9 weeks and weighed between 20-25 g. All rats were aged 8 weeks and weighed 200-220 g. Mice and rats were bred and housed under specific pathogen-free conditions.
The adenosine receptor agonists NECA, CCPA and CGS 21860 were purchased from Tocris. Each was dissolved in DMSO then diluted in PBS to the desired concentration; in most cases final DMSO concentrations were <0.5% (vol/vol). For vehicle controls, DMSO was diluted in PBS to the same concentration. Dehydrated dextrans labeled with either FITC or Texas Red were purchased from Invitrogen and re-suspended in PBS to 10 mg ml^−1. All experiments involving dextran injection used 0.5 mg dextran in PBS. In experiments where drug and dextran were injected concomitantly, 0.5 mg of dextran was mixed with the drug to the desired concentration in a final volume of 200 μl. All injections were retro-orbital i.v. with a 27-gauge needle. In the SCH 58261 experiment, groups were administered vehicle or SCH 58261 for 4 d. Vehicle/drug and dextrans were injected on day 5 and tissues were collected 3 h after vehicle/drug administration. In Lexiscan experiments, Lexiscan was administered i.v. with 3 injections, 5 min apart and tissues were collected at 15 min unless otherwise indicated.
In dose-response experiments and experiments with the A1 AR and A2A AR knock-out mice, drugs and dextrans were injected concomitantly. After 3 h, the mice were anesthetized with ketamine/xylazine and subjected to a nose cone containing isoflurane. They were perfused with 25-50 ml ice-cold PBS through the left ventricle of the heart then decapitated. Their brains were removed, weighed and frozen for later analysis.
Ice-cold 50 mM Tris-Cl (pH 7.6) was added to frozen brains (100 μl per 100 mg brain) and were to thawed on ice. They were homogenized manually with ˜45 strokes of a dounce homogenizer in plastic 1.5 ml microfuge tubes then spun at 16.1 g in a microfuge for 30 min at room temperature (rt). The supernatants were transferred to new tubes and an equal volume absolute methanol was added. The samples were spun again at 16.1 g for 30 min at rt. Supernatant (200 μl) was transferred to a Corning costar 96 well black polystyrene assay plate (clear bottom). Additionally, a series of standards containing 0.001-10 μg ml^−1 dextran in 50% Tris-Cl/50% absolute methanol (vol/vol) was added to each plate. Absolute concentrations of dextrans were derived from these standard curves. Fluorimetric analysis was performed on a BioTek Synergy 4. FITC-dextran was detected at 488/519 (excitation/emission) and Texas Red-dextran was detected at 592/618.

brain endothelial cells = experiment: Actin stress fiber induction in brain endothelial cells; assay type: cell-based
Description: To test this brain endothelial cells were treated with either CCPA (to agonize A1 adenosine receptors) or […] (to agonize the A2A adenosine receptor).

blood brain barrier [3] = experiment: FITC-Dextran extravasation through the brain endothelium (brain sections); assay type: in vivo, mice; settings: wild type mice, FIG. 16
Description: In order to examine the effects of caffeine, a general adenosine receptor antagonist, on blood brain barrier permeability, mice were fed caffeine for several days and then injected with FITC Dextran, commonly used to assess endothelial permeability.
More particularly, mice were fed 0.6 g/l caffeine (Sigma, St. Louis, Mo.) in water or regular water ad lib for five days. Mice were injected IP with FITC Dextran (10,000 MW, Molecular Probes, Eugene, Oreg.) and after 30 minutes mice were perfused with ice cold PBS via the left ventricle. Brains were removed and snap frozen in OCT (Tissue Tek, Torrance, Calif.) and stored at −80° C. until sectioning. Tissue sections (5 μm) were stained with hematoxylin for light microscopy and with DAPI for a fluorescent counterstain.

[4] = system: CNS lymphocyte infiltration; experiment: Immunohistochemistry of CD4+ infiltrating lymphocytes in brain and spinal cord after EAE induction; assay type: in vivo; settings: wild type mice, day 15 post-EAE induction; 2 mg/kg daily; vs DMSO treated
Text: (§1) Cd73^−/− mice have been previously described (Thompson et al., “Crucial Role for Ecto-5′-Nucleotidase (CD73) in Vascular Leakage During Hypoxia,” J. Exp. Med. 200:1395-1405 (2004), which is hereby incorporated by reference in its entirety) and have been backcrossed to C57BL/6 for 14 generations. Cd73 mice have no overt susceptibility to infection and appear normal based on the size and cellular composition of their lymphoid organs and their T and B cell responses in in vivo and in vitro assays (Thompson et al., “Crucial Role for Ecto-5′-Nucleotidase (CD73) in Vascular Leakage During Hypoxia,” J. Exp. Med. 200:1395-1405 (2004), which is hereby incorporated by reference in its entirety). C57BL/6 and tcrα^−/− mice on the C57BL/6 background were purchased from The Jackson Laboratories. Mice were bred and housed under specific pathogen-free conditions at Cornell University or the University of Turku. For adenosine receptor blockade experiments, mice were given drinking water supplemented with 0.6 g/L of caffeine (Sigma) or 2 mg/kg SCH58261 (1 mg/kg s.c. and 1 mg/kg i.p.) in DMSO (45% vol. in PBS) or 45% DMSO alone starting 1 day before EAE induction and continuing throughout the experiment. All procedures performed on mice were approved by the relevant animal review committee. […]

[5] = system: Experimental Autoimmune Encephalomyelitis (EAE); experiment: MOG-induced EAE induction and daily scoring; assay type: in vivo, mice; settings: wild type mice; 2 mg/kg (1 mg/kg i.p. and 1 mg/kg s.c.) 1 day prior to EAE induction and daily for 30 days; vs DMSO alone
Text: Cd73^−/− mice have been previously described (Thompson et al., “Crucial Role for Ecto-5′-Nucleotidase (CD73) in Vascular Leakage During Hypoxia,” J. Exp. Med. 200:1395-1405 (2004), which is hereby incorporated by reference in its entirety) and have been backcrossed to C57BL/6 for 14 generations. Cd73 mice have no overt susceptibility to infection and appear normal based on the size and cellular composition of their lymphoid organs and their T and B cell responses in in vivo and in vitro assays (Thompson et al., “Crucial Role for Ecto-5′-Nucleotidase (CD73) in Vascular Leakage During Hypoxia,” J. Exp. Med. 200:1395-1405 (2004), which is hereby incorporated by reference in its entirety). C57BL/6 and tcrα^−/− mice on the C57BL/6 background were purchased from The Jackson Laboratories. Mice were bred and housed under specific pathogen-free conditions at Cornell University or the University of Turku. For adenosine receptor blockade experiments, mice were given drinking water supplemented with 0.6 g/L of caffeine (Sigma) or 2 mg/kg SCH58261 (1 mg/kg s.c. and 1 mg/kg i.p.) in DMSO (45% vol. in PBS) or 45% DMSO alone starting 1 day before EAE induction and continuing throughout the experiment. All procedures performed on mice were approved by the relevant animal review committee.
EAE was induced by subjecting mice to the myelin oligodendrocyte glycoprotein (“MOG”) EAE-inducing regimen as described in Swanborg, “Experimental Autoimmune Encephalomyelitis in Rodents as a Model for Human Demyelinating Disease,” Clin. Immunol. Immunopathol. 77:4-13 (1995) and Bynoe et al., “Epicutaneous Immunization with Autoantigenic Peptides Induces T Suppressor Cells that Prevent Experimental Allergic Encephalomyelitis,” Immunity 19:317-328 (2003), which are hereby incorporated by reference in their entirety. Briefly, a 1:1 emulsion of MOG35-55 peptide (3 mg/ml in PBS) (Invitrogen) and complete Freund's adjuvant (CFA, Sigma) was injected subcutaneously (50 μl) into each flank. Pertussis toxin (PTX, 20 ng) (Biological Laboratories Inc.) was given intravenously (200 μl in PBS) at the time of immunization and again 2 days later. Mice were scored daily for EAE based on disease symptom severity; 0=no disease, 0.5-1=weak/limp tail, 2=limp tail and partial hind limb paralysis, 3=total hind limb paralysis, 4=both hind limb and fore limb paralysis, 5=death. Mice with a score of 4 were euthanized.

[6] = system: ICAM-1 on the choroid plexus; experiment: Immunohistochemistry of ICAM-1 expression at the choroid plexus after EAE induction; assay type: in vivo; settings: wild type mice, day 15 post-EAE induction; 2 mg/kg daily; vs DMSO
Text: as §1

Row | Structure (SMILES) | BBB permeability (blood brain barrier [1]) | magnitude of increased BBB permeability compared with NECA administration (blood brain barrier [2]; i.v. administration) | BBB permeability to 10,000 Da dextrans (blood brain barrier [2]; mice, i.v., 3 injections 5 min apart, tissues collected at 15 min) | time after which FITC-dextran was detectable in the brain (blood brain barrier [2]; mice, single i.v. injection) [min] | actin stress fibers compared to vehicle alone (brain endothelial cells) | FITC-Dextran extravasation across the blood brain barrier (blood brain barrier [3]) | entry of 10,000 Da FITC-dextran into brain (blood brain barrier [2]; WT mice, intraperitoneal administration for 4 d, dextran on day 5) | frequency of CD4+ lymphocytes in the brain and spinal cord [4] | EAE development [5] | ICAM-1 expression on the choroid plexus following EAE induction [6]
1 | CNC(=O)c1cnn(-c2nc(N)c3ncn([C@@H]4O[C@H](CO)[C@@H](O)[C@H]4O)c3n2)c1 [Lexiscan] | increased BBB permeability in rats | much greater | increase BBB permeability to 10,000 Da dextrans | 5 | induction of actin stress fibers was observed | – | – | – | – | –
2 | Nc1nc2c(cnn2CCc2ccccc2)c2nc(-c3ccco3)nn12 [SCH58261, 2-(2-Furanyl)-7-(2-phenylethyl)-7H-pyrazolo[4,3-e][1,2,4]triazolo[1,5-c]pyrimidin-5-amine] | – | – | – | – | – | inhibit FITC-Dextran extravasation | significantly decreased entry | significantly lower frequency | dramatically protected against EAE development | prevented the up regulation of ICAM-1

Reference: patent US20110262442A1, “COMPOSITIONS FOR TREATING CNS DISORDERS” (Adenios, Inc., priority 2009, published 2011)
